Experimental data from patent publication US8324198B1, “Monocarbams” (Pfizer Inc., priority 2008, dated 2012).
In brackets after ≈: the same amount, converted by molar mass. Where a name gives a salt, the structure may show the parent alone.

Columns and labels:
[1] = tested on: Klebsiella pneumoniae 1000-02; assay: In vitro MIC, Klebsiella pneumoniae 1000-02; assay type: cell-based; conditions: strain 1000-02, resistant to cephalosporins
Description: (§1) Culture collection strain 1045-06 is resistant to several classes of known antimicrobial agents including carbapenems, aminoglycosides and fluoroquinolones, while strains 1000-02 and 3167 are resistant to cephalosporins. Strain PA0200 is a derivative of laboratory strain PAO1 that lacks a functional MexAB-oprM efflux pump.

P. aeruginosa 1091-05 [2] = assay: In vitro MIC, P. aeruginosa 1091-05; assay type: cell-based; conditions: for MIC: Pseudomonas aeruginosa, 109105, read-out: Pa 1091-05 MIC
[3] = tested on: Pseudomonas aeruginosa 1045-06; assay: In vitro MIC, Pseudomonas aeruginosa 1045-06; assay type: cell-based; conditions: strain 1045-06, resistant to carbapenems, aminoglycosides and fluoroquinolones
Description: as §1

[4] = tested on: Acinetobacter baumanii 3167; assay: In vitro MIC, Acinetobacter baumanii 3167; assay type: cell-based; conditions: strain 3167, resistant to cephalosporins
Description: as §1

P. aeruginosa 1091-05 [5] = assay: Murine respiratory tract infection model against P. aeruginosa 1091-05 (PD50); assay type: in vivo; conditions: for RTI PD50 vs. Pa 1091-05 (95% confidence interval): immunosuppressed C3H/HeN mice, intranasal challenge, subcutaneous BID for two days from 4 h post-challenge, lethality over ten days; for Efficacy relative to Comparative Example A (PD50, 95% confidence intervals): murine respiratory tract infection model, P. aeruginosa 1091-05
Procedure: For this model, C3H/HeN mice were immunosuppressed with cyclophosphamide given orally at 150 mg/kg and 100 mg/kg on days −4 and −1 relative to challenge, respectively. Mice were anesthetized with isoflurane (5% in oxygen) and the bacterial inoculum was given to each mouse via intranasal instillation in a 40 μL volume (˜2.8×10^3 cfu per mouse). Mice were dosed with compound administered via subcutaneous injection beginning at four hours post-challenge, and continuing for two days of BID therapy.
PD50 is a measure of the ability of a compound to protect mice from a lethal infection.

[6] = tested on: Pseudomonas aeruginosa PA0200 MexAB-oprM KO; assay: In vitro MIC, Pseudomonas aeruginosa PA0200 MexAB-oprM KO; assay type: cell-based; conditions: PAO1, read-out: MIC Pseudomonas aeruginosa PA0200 MexAB-oprM KO
Description: as §1

Compound	MIC Klebsiella pneumoniae 1000-02 [1] [µg/mL]	Pa 1091-05 MIC (P. aeruginosa 1091-05 [2]) [µg/mL]	MIC Pseudomonas aeruginosa 1045-06 [3] [µg/mL]	MIC Acinetobacter baumanii 3167 [4] [µg/mL]	RTI PD50 vs. Pa 1091-05 (95% confidence interval) (P. aeruginosa 1091-05 [5]; disodium salt)	Efficacy relative to Comparative Example A (PD50, 95% confidence intervals) (P. aeruginosa 1091-05 [5])	MIC [6] [µg/mL]	further results
2-({[(1Z)-2-{[(3S)-1-({[4-(2-amino-2-oxoethyl)-3-(5-hydroxy-4-oxo-1,4-dihydropyridin-2-yl)-5-oxo-4,5-dihydro-1H-1,2,4-triazol-1-yl]sulfonyl}carbamoyl)-2-oxoazetidin-3-yl]amino}-1-(2-amino-1,3-thiazol-4-yl)-2-oxoethylidene]amino}oxy)-2-methylpropanoic acid, disodium salt [Example 4]	1000	125	500	1000	25.0 (24.8-25.2) mg/kg	significantly more efficacious relative to Comparative Example A	–	–
CCn1c(-c2cc(=O)c(O)c[nH]2)nn(S(=O)(=O)NC(=O)N2C[C@H](NC(=O)C(=NOC(C)(C)C(=O)O)c3csc(N)n3)C2=O)c1=O (stereo in doubt) [Example 1, 2-({[(1E)-1-(2-amino-1,3-thiazol-4-yl)-2-{[(3S)-1-({[4-ethyl-3-(5-hydroxy-4-oxo-1,4-dihydropyridin-2-yl)-5-oxo-4,5-dihydro-1H-1,2,4-triazol-1-yl]sulfonyl}carbamoyl)-2-oxoazetidin-3-yl]amino}-2-oxoethylidene]amino}oxy)-2-methylpropanoic acid]	–	–	–	–	–	–	< 62.5	–
CO/N=C(\C(=O)N[C@@H]1C(=O)N2C(C(=O)[O-])=C(C[N+]3(C)CCCC3)CS[C@H]12)c1csc(N)n1 [Cefepime, reference compound]	–	–	–	–	–	–	–	MIC (P. aeruginosa 1091-05 [2]): 2000 µg/mL (≈ 4160 µM); RTI PD50 vs. Pa 1091-05 (95% confidence interval) (P. aeruginosa 1091-05 [5]): 22 mg/kg
CN(C)CCn1c(-c2cc(=O)c(O)c[nH]2)nn(S(=O)(=O)NC(=O)N2C[C@H](NC(=O)/C(=N\OC(C)(C)C(=O)O)c3csc(N)n3)C2=O)c1=O [Example 2, 2-({[(1Z)-1-(2-amino-1,3-thiazol-4-yl)-2-({(3S)-1-[({4-[2-(dimethylamino)ethyl]-3-(5-hydroxy-4-oxo-1,4-dihydropyridin-2-yl)-5-oxo-4,5-dihydro-1H-1,2,4-triazol-1-yl}sulfonyl)carbamoyl]-2-oxoazetidin-3-yl}amino)-2-oxoethylidene]amino}oxy)-2-methylpropanoic acid]	–	–	–	–	–	–	188 (≈ 264 µM)	–
CC(C)(O/N=C(\C(=O)N[C@H]1CN(C(=O)NS(=O)(=O)n2nc(-c3cc(=O)c(O)c[nH]3)n(C[C@@H](O)CO)c2=O)C1=O)c1csc(N)n1)C(=O)[O-].CC(C)(O/N=C(\C(=O)N[C@H]1CN(C(=O)NS(=O)(=O)n2nc(-c3cc(=O)c(O)c[nH]3)n(C[C@@H](O)CO)c2=O)C1=O)c1csc(N)n1)C(=O)[O-].[Na+].[Na+] [Example 3, 2-({[(1Z)-1-(2-amino-1,3-thiazol-4-yl)-2-({(3S)-1-[({4-[(2R)-2,3-dihydroxypropyl]-3-(5-hydroxy-4-oxo-1,4-dihydropyridin-2-yl)-5-oxo-4,5-dihydro-1H-1,2,4-triazol-1-yl}sulfonyl)carbamoyl]-2-oxoazetidin-3-yl}amino)-2-oxoethylidene]amino}oxy)-2-methylpropanoic acid, disodium salt]	500	125	500	500	20.6 (8.7-32.52) mg/kg	significantly more efficacious relative to Comparative Example A	–	–
CC(C)(O/N=C(\C(=O)N[C@H]1CN(C(=O)NS(=O)(=O)n2nc(-c3cc(=O)c(O)c[nH]3)n(C[C@H](O)CO)c2=O)C1=O)c1csc(N)n1)C(=O)[O-].CC(C)(O/N=C(\C(=O)N[C@H]1CN(C(=O)NS(=O)(=O)n2nc(-c3cc(=O)c(O)c[nH]3)n(C[C@H](O)CO)c2=O)C1=O)c1csc(N)n1)C(=O)[O-].[Na+].[Na+] [Example 5, 2-({[(1Z)-1-(2-amino-1,3-thiazol-4-yl)-2-({(3S)-1-[({4-[(2S)-2,3-dihydroxypropyl]-3-(5-hydroxy-4-oxo-1,4-dihydropyridin-2-yl)-5-oxo-4,5-dihydro-1H-1,2,4-triazol-1-yl}sulfonyl)carbamoyl]-2-oxoazetidin-3-yl}amino)-2-oxoethylidene]amino}oxy)-2-methylpropanoic acid, disodium salt]	500	125	250	500	18.6 (8.94-28.29) mg/kg	significantly more efficacious relative to Comparative Example A	–	–
C[C@@H](O)Cn1c(-c2cc(=O)c(O)c[nH]2)nn(S(=O)(=O)NC(=O)N2C[C@H](NC(=O)/C(=N\OC(C)(C)C(=O)[O-])c3csc(N)n3)C2=O)c1=O.C[C@@H](O)Cn1c(-c2cc(=O)c(O)c[nH]2)nn(S(=O)(=O)NC(=O)N2C[C@H](NC(=O)/C(=N\OC(C)(C)C(=O)[O-])c3csc(N)n3)C2=O)c1=O.[Na+].[Na+] [Example 6]	500	125	250	1000	32.7 (23.7-42.0) mg/kg	significantly more efficacious relative to Comparative Example A	–	–
CCCn1c(-c2cc(=O)c(O)c[nH]2)nn(S(=O)(=O)NC(=O)N2C[C@H](NC(=O)/C(=N\OC(C)(C)C(=O)O)c3csc(N)n3)C2=O)c1=O [Example 9, 2-({[(1Z)-1-(2-amino-1,3-thiazol-4-yl)-2-{[(3S)-1-({[3-(5-hydroxy-4-oxo-1,4-dihydropyridin-2-yl)-5-oxo-4-propyl-4,5-dihydro-1H-1,2,4-triazol-1-yl]sulfonyl}carbamoyl)-2-oxoazetidin-3-yl]amino}-2-oxoethylidene]amino}oxy)-2-methylpropanoic acid]	–	–	–	–	–	–	< 62.5	–
CC(C)(O/N=C(\C(=O)N[C@H]1CN(C(=O)NS(=O)(=O)n2nc(-c3cc(=O)c(O)c[nH]3)n(CC(O)CO)c2=O)C1=O)c1csc(N)n1)C(=O)O (stereo partly drawn) [Example 10, 2-({[(1Z)-1-(2-amino-1,3-thiazol-4-yl)-2-{[(3S)-1-({[4-(2,3-dihydroxypropyl)-3-(5-hydroxy-4-oxo-1,4-dihydropyridin-2-yl)-5-oxo-4,5-dihydro-1H-1,2,4-triazol-1-yl]sulfonyl}carbamoyl)-2-oxoazetidin-3-yl]amino}-2-oxoethylidene]amino}oxy)-2-methylpropanoic acid]	–	–	–	–	–	–	250 (≈ 350 µM)	–
CC(C)(O/N=C(\C(=O)N[C@H]1CN(C(=O)NS(=O)(=O)n2nc(-c3cc(=O)c(O)c[nH]3)n(CCN3CCCC3)c2=O)C1=O)c1csc(N)n1)C(=O)O [Example 11, 2-({[(1Z)-1-(2-amino-1,3-thiazol-4-yl)-2-{[(3S)-1-({[3-(5-hydroxy-4-oxo-1,4-dihydropyridin-2-yl)-5-oxo-4-(2-pyrrolidin-1-ylethyl)-4,5-dihydro-1H-1,2,4-triazol-1-yl]sulfonyl}carbamoyl)-2-oxoazetidin-3-yl]amino}-2-oxoethylidene]amino}oxy)-2-methylpropanoic acid]	–	–	–	–	–	–	16000 (≈ 21700 µM)	–
COCCn1c(-c2cc(=O)c(O)c[nH]2)nn(S(=O)(=O)NC(=O)N2C[C@H](NC(=O)/C(=N\OC(C)(C)C(=O)O)c3csc(N)n3)C2=O)c1=O [Example 15, 2-({[(1Z)-1-(2-amino-1,3-thiazol-4-yl)-2-{[(3S)-1-({[3-(5-hydroxy-4-oxo-1,4-dihydropyridin-2-yl)-4-(2-methoxyethyl)-5-oxo-4,5-dihydro-1H-1,2,4-triazol-1-yl]sulfonyl}carbamoyl)-2-oxoazetidin-3-yl]amino}-2-oxoethylidene]amino}oxy)-2-methylpropanoic acid, disodium salt]	–	–	–	–	–	–	–	MIC (P. aeruginosa 1091-05 [2]): 500 µg/mL; RTI PD50 vs. Pa 1091-05 (95% confidence interval) (P. aeruginosa 1091-05 [5]): >70.8 mg/kg
C[C@@H](O)[C@H]1C(=O)N2C(C(=O)O)=C(SCCN=CN)C[C@H]12 [Imipenem, reference compound]	–	–	–	–	–	–	–	MIC (P. aeruginosa 1091-05 [2]): 500 µg/mL (≈ 1670 µM); RTI PD50 vs. Pa 1091-05 (95% confidence interval) (P. aeruginosa 1091-05 [5]): 1.04 mg/kg
